Results reported in the supplement of paper PMC11208160.

Assay: recombinant UMI read abundance after kanamycin selection (control-corrected) (log10(CPM+1)); higher = more efficient recombination; extreme values may be limits of the assay; sequences stand for … in AGTGCAGAGAAAATCGGCCAGTTTTCTCTGCCTGCAGTCCGCATGCCGTGGGACCCCTTGGGTTCTAACCTGTTGCCTAGATTTATGCAGCGGACTGCCTTTCTCCCAAAGTGATAAACCGG…AGGTTGGTTTCACT; site = the 11-nt donor
Experimental: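 Pooled E. coli donor-specificity screen for the IS621 bridge recombinase. Each library member carries a reprogrammed 11-nt donor and a full-length LE bridge RNA expressed in cis from the natural promoter, with a paired donor-binding loop (8-nt LDG + 4-nt RDG) and a target-binding loop fixed to T5. It is co-electroporated with a T5 target plasmid; recombinase is induced with 0.07 mM IPTG and recombinants are selected on kanamycin. UMIs are counted as CPM, averaged over two biological replicates and corrected by the unselected control. Molecule = full bridge RNA written as DNA, built from the T5 scaffold: LDG = donor specificity nt 1-8, RDG = reverse complement of nt 8-11.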
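Note: IS621 bridge recombinase in Escherichia coli cells against a fixed T5 target plasmid.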

Going from “ACACTTACATGGACCGGTTTTCCCGGTAATCCGTATTTGTT (site ACACTTACTAA)” to “ACACTTTCATGGACCGGTTTTCCCGGTAATCCGTATTTGCA (site ACACTTTCTTG)”, the “recombinant UMI read abundance (log10)” value rises from 0.147 to 2.82.

Going from “ACACTTTCATGGACCGGTTTTCCCGGTAATCCGTATTTGCA (site ACAGTATCTTG)” to “ACAGAATCATGGACCGGTTTTCCCGGTAATCCGTATTTGCA (site ACAGAATCTTG)”, the “recombinant UMI read abundance (log10)” value rises from 1.19 to 2.9.

“ACAGAATCATGGACCGGTTTTCCCGGTAATCCGTATTTGCA (site ACAGCATCTTG)” and “ACAGAATCATGGACCGGTTTTCCCGGTAATCCGTATTTGCA (site ACAGGATCTTG)” are within 0.2 log units of each other in “recombinant UMI read abundance (log10)” value: 2.64 for the first, 2.45 for the second.

First: ACAGAATCATGGACCGGTTTTCCCGGTAATCCGTATTTGCA (site ACAGTATCTTG)
Second: ACAGACTCATGGACCGGTTTTCCCGGTAATCCGTATTTGCA (site ACAGACTCTTG)
The “recombinant UMI read abundance (log10)” value of the first is lower: 1.8 for the first, 2.44 for the second.

First: ACAGACTCATGGACCGGTTTTCCCGGTAATCCGTATTTGCA (site ACAGTATCTTG)
Second: ACAGAGGCATGGACCGGTTTTCCCGGTAATCCGTATTTGTG (site ACAGAGGCTCA)
The “recombinant UMI read abundance (log10)” value of the first is lower: 0 for the first, 1.14 for the second.

First: ACAGGATCATGGACCGGTTTTCCCGGTAATCCGTATTTGCA (site ACAGAATCTTG)
Second: ACAGGATCATGGACCGGTTTTCCCGGTAATCCGTATTTGCA (site ACAGCATCTTG)
The “recombinant UMI read abundance (log10)” value of the first is higher: 2.47 for the first, 2.01 for the second.

Compared with “ACAGGATCATGGACCGGTTTTCCCGGTAATCCGTATTTGCA (site ACAGGATCTTG)”, “ACAGGATCATGGACCGGTTTTCCCGGTAATCCGTATTTGCA (site ACAGTATCTTG)” is higher in “recombinant UMI read abundance (log10)” value: 1.77 for the first, 2.38 for the second.

First: ACAGTAACATGGACCGGTTTTCCCGGTAATCCGTATTTGCT (site ACAGTAACTAG)
Second: ACAGTAACATGGACCGGTTTTCCCGGTAATCCGTATTTGCT (site ACAGTATCTTG)
The “recombinant UMI read abundance (log10)” value of the first is higher: 2.7 for the first, 0.994 for the second.

“ACAGTACCATGGACCGGTTTTCCCGGTAATCCGTATTTGCA (site ACAGTAACTTG)” and “ACAGTACCATGGACCGGTTTTCCCGGTAATCCGTATTTGCA (site ACAGTACCTTG)” are within 0.2 log units of each other in “recombinant UMI read abundance (log10)” value: 0 for the first, 0.00459 for the second.

Compared with “ACAGTACCATGGACCGGTTTTCCCGGTAATCCGTATTTGCA (site ACAGTAGCTTG)”, “ACAGTACCATGGACCGGTTTTCCCGGTAATCCGTATTTGCA (site ACAGTATCTTG)” is higher in “recombinant UMI read abundance (log10)” value: 0.138 for the first, 1.71 for the second.

First: ACAGTAGCATGGACCGGTTTTCCCGGTAATCCGTATTTGCG (site ACAGTAGCTCG)
Second: ACAGTAGCATGGACCGGTTTTCCCGGTAATCCGTATTTGCG (site ACAGTATCTTG)
The “recombinant UMI read abundance (log10)” value of the first is higher: 2.42 for the first, 0.736 for the second.

First: ACAGTATCATGGACCGGTTTTCCCGGTAATCCGTATTTGAA (site ACAGTATCTTA)
Second: ACAGTATCATGGACCGGTTTTCCCGGTAATCCGTATTTGAA (site ACAGTATCTTC)
The “recombinant UMI read abundance (log10)” value of the first is higher: 2.34 for the first, 1.73 for the second.

Compared with “ACAGTATCATGGACCGGTTTTCCCGGTAATCCGTATTTGAA (site ACAGTATCTTG)”, “ACAGTATCATGGACCGGTTTTCCCGGTAATCCGTATTTGAA (site ACAGTATCTTT)” is higher in “recombinant UMI read abundance (log10)” value: 0.829 for the first, 3.04 for the second.

First: ACAGTATCATGGACCGGTTTTCCCGGTAATCCGTATTTGAC (site ACAGTATCTGT)
Second: ACAGTATCATGGACCGGTTTTCCCGGTAATCCGTATTTGAC (site ACAGTATCTTG)
The “recombinant UMI read abundance (log10)” value of the first is higher: 3.52 for the first, 1.15 for the second.

Going from “ACAGTATCATGGACCGGTTTTCCCGGTAATCCGTATTTGAC (site CTAGTATCTGT)” to “ACAGTATCATGGACCGGTTTTCCCGGTAATCCGTATTTGCC (site ACAGTATCTAG)”, the “recombinant UMI read abundance (log10)” value falls from 1.64 to 1.42.

Compared with “ACAGTATCATGGACCGGTTTTCCCGGTAATCCGTATTTGCC (site ACAGTATCTCG)”, “ACAGTATCATGGACCGGTTTTCCCGGTAATCCGTATTTGCC (site ACAGTATCTGG)” is higher in “recombinant UMI read abundance (log10)” value: 1.77 for the first, 2.92 for the second.
